Measurements as given in patent US12297197B2, “Pyrazolopyridine compound as RET inhibitor and application thereof” (GUANGZHOU BAIYUNSHAN PHARMACEUTICAL HOLDINGS CO., LTD. …, priority 2019, dated 2025).

Columns and labels:
[1] = Pharmacokinetic evaluation in mice (IV and PO); assay type: in vivo; settings: mouse, plasma, female Balb/c mice; for bioavailability: peros (PO) 2 mg/kg vs IV 0.2 mg/kg, read-out: F (bioavailability)
Procedure: Experiment process: 0.1 mg/ml of the clear solution of each test compound in the corresponding solvents (as shown in Table 9) was injected into female Balb/c mice (fasting overnight. 7-9 weeks old) via the tail vein at a dose of […]. Blood samples ([…]) were collected from the jugular vein or the tail vein at the following time points: 0.0833 hour, 0.25 hour, 0.5 hour, 1.0 hour, 2.0 hours, 4.0 hours. 8.0 hours and 24 hours after intravenous administration. 0.2 mg/ml of the test compounds suspended in the corresponding solvents (as shown in Table 9) were given to the female Balb/c mice (fasting overnight. 7-9 weeks old) by gavage at a dose of 2 mg/kg. Blood samples (30 μL) were collected from the jugular vein or the tail vein of the female Balb/c mice at the following time points: 0.0833 hour, 0.25 hour, 0.5 hour, 1.0 hour, 2.0 hours, 4.0 hours, 6.0 hours, 8.0 hours and 24 hours after oral administration. The blood samples were placed in anticoagulant tubes containing EDTA-K2, and centrifuged to separate plasma. The plasma concentration was determined by LC-MS/MS, and a WinNonlin™ Version 6.3 pharmacokinetic software (Pharsight, Mountain View, CA) was used to calculate related pharmacokinetic parameters by a linear-log trapezoidal method in a non-compartmental model. [table]

[2] = system: Ba/F3-CCDC6-RET cell allograft tumor model; experiment: Tumor growth inhibition (TGI) in Ba/F3-CCDC6-RET cell allograft tumor model; assay type: in vivo, BALB/c nude female mouse
Procedure: Ba/F3-CCDC6-RET cell line was cultured in a 1640 medium (Biological Industries)+10% fetal bovine serum (BI)+1% Penicillin Streptomycin solution (Coring, USA) at 37° C. in a 5% CO2 incubator, with passage treatment twice a week Cells were collected when the cell saturation was 80%-90%, subjected to cell counting, and then inoculated subcutaneously into the right armpit of each BALB/c nude female mouse (6-8 weeks old). After inoculation, tumor growth was observed day by day. When the average tumor volume reached 165.77 mm^3, mice were randomly divided into groups according to the tumor volume, with 6 mice in each group, and then the mice were administrated with drug.
Health status and death situation of the mice were checked every day. In addition, the mice were examined regularly, including tumor growth, activity ability, diet, weight, eyes, hair and other abnormal behaviors, and tumor volume and weight were measured twice a week (on Tuesday and Friday).
Inhibitory effects of the compounds on tumor growth were evaluated according to the relationship between tumor volume and time. The tumor volume was measured by a vernier caliper, with the formula being TV=0.5a×b^2, wherein “a” was the long diameter of the tumor and “b” was the short diameter of the tumor. TGI was calculated by the difference between the median tumor volume of mice in the solvent group and the median tumor volume of mice in the drug group, and expressed as the percentage of median tumor volume in the solvent control group.
TGI was calculated by the following formula: TGI(TGI(%)=[1−(T23−T0)/(V23−V0)]×100)
Data were expressed by Means±Standard Error (Mean±SE), unless otherwise stated. The one way ANOVA test was used to compare whether the difference between the tumor volume in the treatment group and the tumor volume in the control group is statistically significant. P<0.05 was considered as statistically significant. The 5% DMSO+10% polyoxyl 15 hydroxystearate (Solutol)+85% 120 was used as the negative control.

RET (V804M) kinase = RET (V804M) kinase (Homo sapiens, UniProt P07949, V804M); experiment: In-vitro enzyme activity test, RET (V804M) kinase; assay type: biochemical; settings: ATP 30 μM; 10 concentrations 3 μM to 0.152 nM
Sequence of RET (V804M) kinase (P07949 29-1114 V804M): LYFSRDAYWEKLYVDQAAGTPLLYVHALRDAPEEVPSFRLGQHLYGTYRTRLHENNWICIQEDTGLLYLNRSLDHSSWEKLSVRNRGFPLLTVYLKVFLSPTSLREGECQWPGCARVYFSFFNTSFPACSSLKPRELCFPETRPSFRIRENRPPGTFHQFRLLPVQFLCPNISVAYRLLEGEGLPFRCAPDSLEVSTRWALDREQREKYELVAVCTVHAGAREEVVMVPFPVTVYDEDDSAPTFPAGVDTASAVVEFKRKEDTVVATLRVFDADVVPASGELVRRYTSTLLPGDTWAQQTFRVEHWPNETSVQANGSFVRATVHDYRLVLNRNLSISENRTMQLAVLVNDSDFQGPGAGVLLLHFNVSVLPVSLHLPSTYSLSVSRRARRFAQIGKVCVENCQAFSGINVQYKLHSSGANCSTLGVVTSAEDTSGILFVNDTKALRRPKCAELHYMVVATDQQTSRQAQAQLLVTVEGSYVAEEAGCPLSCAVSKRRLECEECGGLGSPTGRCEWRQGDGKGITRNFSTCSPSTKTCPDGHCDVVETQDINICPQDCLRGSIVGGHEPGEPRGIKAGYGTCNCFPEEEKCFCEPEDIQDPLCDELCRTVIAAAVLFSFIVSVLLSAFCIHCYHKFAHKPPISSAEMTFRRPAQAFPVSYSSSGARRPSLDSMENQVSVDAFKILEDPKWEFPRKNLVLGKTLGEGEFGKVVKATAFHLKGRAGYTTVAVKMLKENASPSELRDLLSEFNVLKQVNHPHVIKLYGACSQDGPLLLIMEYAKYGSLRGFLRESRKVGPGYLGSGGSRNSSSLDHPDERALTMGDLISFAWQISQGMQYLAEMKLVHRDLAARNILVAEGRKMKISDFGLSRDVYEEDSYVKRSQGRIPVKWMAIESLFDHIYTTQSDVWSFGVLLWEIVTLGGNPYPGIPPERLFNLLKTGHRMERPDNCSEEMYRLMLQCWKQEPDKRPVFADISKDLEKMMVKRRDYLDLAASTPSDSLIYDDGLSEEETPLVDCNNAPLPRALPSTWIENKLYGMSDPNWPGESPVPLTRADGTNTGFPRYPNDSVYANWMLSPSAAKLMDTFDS
Procedure: (§1) The enzyme activity was detected by a Z′-LYTE™ kinase test, and inhibitory effects of the compounds onRET and RET (V804M) kinases were evaluated with an ICs value of each compound as an index.
(§2) The compounds used for RET and RET (V804M) kinase tests were diluted 3-fold, in 10 concentration gradients ranging from 3 μM to 0.152 nM; and the content of DMSO in detection reaction was 1%.
(§3) Basic reaction buffer, 20 mM 4-(2-hydroxyethyl)piperazine-1-ethanesulfonic acid (Hepes) buffer (pH 7.5), 10 mM MgCl2. 1 mM 1,2-bis[2-[bis(carboxymethyl)amino]ethoxy]ethane (EGTA), 0.02% polyoxyethylene lauryl ether (Brij35), 0.02 mg/mL bovine serum albumin, 0.1 mM of Na3VO4, 2 mM dithiothreitol (DTT) and 1% DMSO.
(§4) The compounds to be tested were dissolved in a 100% DMSO system to be diluted to 10 mM for further use. The solution was diluted by using Integra Viaflo Assist.
(§5) Test conditions: concentrations of RET kinase, peptide substrate CHKtide and adenosine triphosphate (ATP) were […], 1000 μM and 20 μM, respectively, and concentrations of RET (V804M) kinase, substrate peptide and ATP were […], 1000 μM and 30 μM, respectively.
(§6) Reaction process: compound solutions of different concentrations were added to a kinase/peptide solution prepared according to the test conditions, the obtained solution was incubated at room temperature for 20 minutes, and then 33P-ATP of corresponding concentrations were added, and the obtained solution was incubated at room temperature for 120 minutes. The radioactivity was detected by a filter-binding method.
(§7) The reaction was terminated by adding phosphoric acid (concentration, 0.5%) into a kinase reaction solution, and plate reading was carried out with an Envision instrument.
(§8) Data were converted into phosphorylation rate and inhibition rate, and the parametric curve was fitted by using GraphPad Software to obtain IC50 data of the compounds.

RET kinase = RET kinase (Homo sapiens, UniProt P07949); experiment: In-vitro enzyme activity test, RET kinase; assay type: biochemical; settings: ATP 20 μM; 10 concentrations 3 μM to 0.152 nM
Sequence of RET kinase (P07949 29-1114): as the sequence (P07949 29-1114 V804M) above, with M776V counted along it
Procedure: as §1, §2, §3, §4, §5, §6, §7, §8

[3] = 10 mg/kg (D0-D13)/5 mg/kg (D14-D17)/2,5 mg/kg (D18-D28) BID

COc1ccc(CN2C3CC2CN(c2cnc(-c4cc(C5=CCOCC5)cn5ncc(C#N)c45)cn2)C3)cn1 [Trifluoroacetate of compound 30]
bioavailability [1]: 96.4%
TGI% (tumor volume at Day 23 after drug administration) [2, 3]: 98%

COc1ccc(CN2C3CC2CN(c2ccc(-c4cc(N5CCC(F)(F)C5)cn5ncc(C#N)c45)cn2)C3)cn1 [Trifluoroacetate of compound 69]
IC50 (RET (V804M) kinase): 1.57 nM
AUC(0-t) ([1]; intravenous injection (IV) 0.2 mg/kg): 3.87 µM·h
clearance ([1]; intravenous injection (IV) 0.2 mg/kg, read-out: Cl (plasma clearance)): 1.3 mL/min/kg
half-life ([1]; intravenous injection (IV) 0.2 mg/kg, read-out: T1/2 (half-life of elimination) (converted)): 3.6 h
Vd ([1]; intravenous injection (IV) 0.2 mg/kg, read-out: Vdds (volume of distribution at steady state)): 0.42 L/kg
bioavailability [1]: 74.7%
AUC(0-t) ([1]; peros (PO) 2 mg/kg): 29.6 µM·h
Cmax ([1]; peros (PO) 2 mg/kg): 3.63 µM
Tmax ([1]; peros (PO) 2 mg/kg): 4 h
TGI% (tumor volume at Day 23 after drug administration) [2, 3]: 99%
IC50 (RET kinase): 1.44 nM

COc1ccc(CN2C3CC2CN(c2ccc(-c4cc(N5CCNCC5)cn5ncc(C#N)c45)cn2)C3)cn1 [Trifluoroacetate of compound 10]
IC50 (RET (V804M) kinase): 3.79 nM
IC50 (RET kinase): 0.69 nM

N#Cc1cnn2cc(C3=CCOCC3)cc(-c3ccc(N4CC5CC(C4)N5Cc4ccc5[nH]cnc5c4)nc3)c12 [Compound 37]
IC50 (RET (V804M) kinase): 15.6 nM
IC50 (RET kinase): 2.3 nM

COc1ccc(CN2C3CC2CN(c2ccc(-c4cc(N5CCN(C)CC5)cn5ncc(C#N)c45)cn2)C3)cn1 [Trifluoroacetate of compound 18]
TGI% (tumor volume at Day 23 after drug administration) ([2]; 10 mg/kg (D0-D17)/5 mg/kg (D18-D28) QD): 91%
IC50 (RET kinase): 0.46 nM

COc1c(F)cc(CN2C3CC2CN(c2ccc(-c4cc(N5CCOCC5)cn5ncc(C#N)c45)cn2)C3)cc1F [Trifluoroacetate of compound 11]
IC50 (RET (V804M) kinase): 0.61 nM
IC50 (RET kinase): 1.3 nM

CCN1CC=C(c2cc(-c3ccc(N4CCN(Cc5c(F)cccc5F)CC4)nc3)c3c(C#N)cnn3c2)CC1 [Trifluoroacetate of compound 27]
IC50 (RET (V804M) kinase): 33.6 nM
IC50 (RET kinase): 4.37 nM

N#Cc1cnn2cc(C3=CCOCC3)cc(-c3cnc(N4CC5CC(C4)N5Cc4ccc5[nH]ccc5c4)cn3)c12 [Compound 45]
IC50 (RET (V804M) kinase): 7.53 nM
IC50 (RET kinase): 1.83 nM

CN1CC=C(c2cc(-c3ccc(N4CCN(Cc5c(F)cccc5F)CC4)nc3)c3c(C#N)cnn3c2)C1 [Trifluoroacetate of compound 24]
IC50 (RET (V804M) kinase): 8.43 nM
IC50 (RET kinase): 1.1 nM

COc1ccc(CN2C3CC2CN(c2cnc(-c4cc(N5CCC(F)(F)C5)cn5ncc(C#N)c45)cn2)C3)cn1 [Trill uoroacetale of compound 65]
IC50 (RET (V804M) kinase): 2.6 nM
IC50 (RET kinase): 0.66 nM

COc1ccc(CN2C3CC2CN(c2ccc(-c4cc(C5=CCC(O)CC5)cn5ncc(C#N)c45)cn2)C3)cn1 (stereo not shown) [Trifluoroacetate of compound 39]
IC50 (RET (V804M) kinase): 2.27 nM
IC50 (RET kinase): 0.67 nM

N#Cc1cnn2cc(C3CC3)cc(-c3ccc(N4CCN(Cc5c(F)cccc5F)CC4)nc3)c12 [Compound 1]
IC50 (RET (V804M) kinase): 36.1 nM
IC50 (RET kinase): 3.66 nM

N#Cc1cnn2cc(N3CCCC3)cc(-c3ccc(N4CCC(C(=O)NC5CC(F)(F)C5)CC4)nc3)c12 [Trifluoroacetate of compound 58]
IC50 (RET (V804M) kinase): 7.81 nM
IC50 (RET kinase): 1.8 nM

C[C@@H](C(=O)N1CCN(c2ccc(-c3cc(C4=CCOC4)cn4ncc(C#N)c34)cn2)CC1)c1ccccc1 [Trifluoroacetate of compound 28]
IC50 (RET (V804M) kinase): 11.6 nM
IC50 (RET kinase): 1.58 nM

CO[C@H]1C[C@@H](NC(=O)C2CCN(c3ccc(-c4cc(N5CCCC5)cn5ncc(C#N)c45)cn3)CC2)C1 [Trifluoroacetate of compound 61]
IC50 (RET (V804M) kinase): 8.85 nM
IC50 (RET kinase): 1.77 nM

CCN1CCC(c2cc(-c3ccc(N4CCN(Cc5c(F)cccc5F)CC4)nc3)c3c(C#N)cnn3c2)C1 (stereo not shown) [Trifluoroacetate of compound 7]
IC50 (RET (V804M) kinase): 1930 nM
IC50 (RET kinase): 239 nM

N#Cc1cnn2cc(C3=CCOCC3)cc(-c3ccc(N4CC5CC(C4)N5Cc4cnc5[nH]ccc5c4)nc3)c12 [Compound 35]
IC50 (RET (V804M) kinase): 5.47 nM
IC50 (RET kinase): 1.57 nM
